Entries after “also recorded” stand apart in the source; their conditions may differ. Where two headings read alike, the source gives them in different places.
Tests used:
[1] = Fluorescence spectra before and after addition of propionaldehyde; format: physicochemical; details: 0.02 mmol/L in 10 mmol/L sodium phosphate buffer pH 7.4; propionaldehyde 0.10 mmol/L; room temperature 4 days
Method: Propionaldehyde was added to a 10 mmol/L sodium phosphate buffer (pH: 7.4) containing 0. 02 mmol/L of each of DAF-2 and Compound 2 so that its final concentration became 0.10 mmol/L, followed by stirring at room temperature for 4 days. The absorption and fluorescence spectra of each of the solutions before the addition of the aldehyde and after the addition were measured.

[2] = system: mucus of a goblet cell of colonic mucosa; experiment: Staining of frozen sliced section of human colonic mucosal tissue (Example 5); details: 8 μm frozen section, 50 μM in PBS, room temperature 1 day, confocal microscope
Description: A fluorescent probe containing a diaminobenzene structure, such as DAF-2 or Compound 2, was examined for its staining property in the mucus of a goblet cell by using a frozen sliced section of a human colonic mucosal tissue as a positive control analyte. Specifically, a sliced frozen section was cut out of the colonic mucosal tissue after its formalin fixation, and was stained with a group of candidate fluorescent probes and washed with phosphate buffered saline. After that, an image of the section was taken with a confocal fluorescence microscope.
(§1) Specifically, the human colonic mucosal tissue sample after the formalin fixation was sufficiently washed with PBS, and was then immersed in PBS containing 30% (w/v) of sucrose, followed by the production of a frozen block with TISSUE-TEK O. C. T. COMPOUND. The frozen block was sliced into a thickness of 8 μm to produce a frozen section. The frozen section was washed with PBS, and was then stained with a solution, which had been obtained by diluting DAF-2 ([…]) or Compound 2 (50 μM) with PBS, at room temperature for 1 day. After that, the stained product was sufficiently washed with PBS. Then, the washed product was mounted with a water-soluble mounting medium, and an image thereof was taken with a confocal microscope.

[3] = system: basement membrane of a renal glomerulus; experiment: Staining of basement membrane of renal glomerulus (Example 5); details: staining as for colonic section
Method: as §1

[4] = system: colonic mucosal epithelium; experiment: Staining combined with CUBIC tissue clearing, 3D imaging (Example 5); set-up: species or system human; details: CUBIC-L/CUBIC-R+ clearing, periodic acid pretreatment, 50 μM, room temperature 3 days
Method: Specifically, the human colonic mucosal tissue sample after the formalin fixation was sufficiently washed with PBS, and was then immersed in a solution, which had been obtained by diluting a CUBIC-L reagent with distilled water to 1/2, at 37° ° C. while being gently shaken. After that, the sample was immersed in the CUBIC-L reagent, and was treated at 37° C. while being gently shaken. During the treatment, the CUBIC-L reagent was replaced with a new one at an interval of once per 1 to 2 days. After that, the sample was sufficiently washed with PBS, and was then immersed in PBS containing 30% (w/v) of sucrose. After that, a frozen block of the Sample was produced by using TISSUE-TEK O.C.T. COMPOUND. The frozen block was thawed, and was then sufficiently washed with PBS and subjected to pretreatment with a […] aqueous solution of periodic acid, followed by staining with a solution, which had been obtained by diluting DAF-2 (50 μM) with PBS, at room temperature for 3 days. After that, the stained product was sufficiently washed with PBS, and was then immersed in a solution obtained by diluting a CUBIC-R+reagent with distilled water to 1/2, followed by gentle shaking at room temperature. After that, the resultant was immersed in the CUBIC-R+reagent at room temperature for 1 day while being gently shaken. An image of the resultant was taken with a confocal microscope. […]

[5] = system: human colonic mucosal tissue; experiment: Clearing and whole-mount 3D fluorescent staining of human colonic mucosal tissue (Test Example B); details: for Staining property for a sample having a thickness after clearing treatment: summary of Examples and Test Examples; for 3D imaging signal of cleared tissue: CUBIC clearing, periodic acid, 50 μM, 2-3 days, excitation 488 nm
Method: CUBIC-L and CUBIC-R+reagents (T3740 and T3741, Tokyo Chemical Industry Co., Ltd.) were used in tissue clearing. Atissue removal procedure is simply described below.
A formaldehyde-fixed tissue specimen was washed with PBS, and was subsequently immersed in a 50% (v/v) CUBIC-L reagent (mixture containing water and the CUBIC-L reagent at 1:1) overnight. Further, the specimen was immersed in the CUBIC-L reagent at 37° C. for 5 days or 6 days while being gently shaken. Next, each of those specimens was washed with PBS, was immersed in 30% (w/v) of sucrose in the PBS, and was frozen in O.C.T. COMPOUND at −80° C. overnight. […] After having been washed with PBS, the specimen was stained by being gently shaken at room temperature for 2 days or 3 days together with FAM hydrazide, 5-isomer (50 μM), Compound 1 (50 μM), Alexa Fluor 488 hydrazide (50 µM), BDP FL hydrazide ([…]), or fluorescein (50 µM) in PBS containing 0.5% (v/v) of Triton X-100 (12967, Nacalai Tesque, Inc.). When nuclear counterstaining was performed, propidium iodide (PI) (10 μg/mb, P21493, Life Technologies Corporation) or RedDot-2 (1:100, 40061-T, Biotium, Inc.) was also added to the staining solution. After the staining step, the specimen was washed with PBS, and was immersed in a 50% (v/v) CUBIC-R+reagent (mixture containing water and the CUBIC-R+reagent at 1:1) overnight. Further, the specimen was immersed in the CUBIC-R+reagent for 1 day or 2 days while being gently shaken. A cleared tissue specimen thus obtained was subjected to 3D imaging with a confocal fluorescence microscope or a light-sheet fluorescence microscope. A wavelength of 488 nm was applied as the excitation wavelength of each of FAM hydrazide, Compound 1, Alexa Fluor 488 hydrazide, BDP FL hydrazide, and fluorescein, and the fluorescence detection wavelength range of each of these materials was from 490 nm to 562 nm.
A 3D image was obtained by using a confocal microscope (Zeiss LSM880 Confocal/Multiphoton, Carl Zeiss AG) or a light-sheet fluorescence microscope (Zeiss Lightsheet 7, Carl Zeiss AG), All pieces of raw image data were reconstructed and analyzed with Imaris software (version 9.2.1, Bitplane Inc.).
A human colonic mucosal tissue after its formalin fixation, which had been excised into a square about 4 mm on a side, was subjected to clearing treatment and to whole-mount 3D tissue staining through use of FAM hydrazide, Alexa Fluor 488 hydrazide, BDP FL hydrazide, or fluorescein as a stain.

[6] = 100 mM sodium phosphate buffer, pH 7.4, cited from earlier work
[7] = system: goblet cell mucus of human colorectal mucosal tissue; experiment: Fluorescent staining of frozen sliced specimen of human colonic mucosa (Test Example A); details: for Fluorescent staining signal in goblet cell mucus, sliced section: 10 μm frozen section, 0.5% periodic acid pretreatment, 50 μM overnight
Method: A tissue to be stained was washed with phosphate buffered saline (PBS), was immersed in 30% (w/v) of sucrose in the PBS, and was frozen in O.C.T. COMPOUND (45833, Sakura Finetek) at −80° ° C. overnight. The frozen tissue was cut into a thickness of 10 μm with a cryostat (CM3050 S, Leica Biosystems). The resultant frozen section was washed with PBS three times, and was subjected to pretreatment with a 0.5% solution of periodic acid (HIOA) (86171, MUTO PURE CHEMICALS CO., LTD.) at room temperature for 30 minutes. The section was washed with PBS three times, and was incubated in FAM hydrazide, 5-isomer((50 µM, 24170, BroadPharm, in this description, sometimes referred to as “FAM hydrazide”), Alexa Fluor 488 hydrazide (50 μM, A10436, ThermoFisher Scientific, Inc.), BDP FL hydrazide (50 μM, 11470, Lumiprobe Corporation), or fluorescein (50 µM, FUJIFILM Wako Pure Chemical Corporation) diluted with PBS at room temperature overnight. After that, the section was washed with PBS and an image thereof was obtained with a confocal microscope.
A section of a human colorectal mucosal tissue sampled from the non-tumor region of a surgical specimen of colorectal cancer was subjected to fluorescent staining through use of FAM hydrazide, Alexa Fluor 488 hydrazide, BDP FL hydrazide, or fluorescein serving as a fluorescent skeleton as a stain.

[8] = Light characteristics: molar extinction coefficient and quantum yield (Table 1); format: physicochemical; details: 10 mM sodium phosphate buffer, pH 7.4
Description: When propionaldehyde was caused to act on DAF-2 (product model number: SK1001-01, Goryo Chemical, Inc.), Compound 16 below was obtained. It was recognized that Compound 16 was fluorescent and its fluorescence intensity increased along with the formation of a benzimidazole ring. […] The formation of a covalent bond with the aldehyde enables detection by fluorescence emission.

Question: Which “Fluorescence intensity after addition of the aldehyde compared to before” value [1] does the source give for `Cc1cc(N)c(N)cc1-c1c2ccc(=O)cc-2oc2cc(O)ccc12` [Compound 2] here?
Answer: increase

Question: And the “Staining of mucus of goblet cell of colonic mucosa” value [2]?
Answer: clearly stained

Question: And the “Visualization of basement membrane of renal glomerulus” value [3]?
Answer: clearly visualized

Question: What about the “3D imaging of colonic mucosal epithelium” value [4] of the same compound?
Answer: enabled the 3D imaging

Question: What about the “Staining property for a sample having a thickness after clearing treatment” value (“Staining property” below) [5] of the same compound?
Answer: significantly excellent

Question: For `Nc1cc(C(=O)O)c(-c2c3ccc(=O)cc-3oc3cc(O)ccc23)cc1N` [DAF-2], which “Fluorescence intensity after addition of the aldehyde compared to before” value [1] is on record?
Answer: increase

Question: And the “Staining of mucus of goblet cell of colonic mucosa” value [2]?
Answer: clearly stained

Question: And the “Visualization of basement membrane of renal glomerulus” value [3]?
Answer: clearly visualized

Question: And the “3D imaging of colonic mucosal epithelium” value [4]?
Answer: enabled the 3D imaging

Question: And the “Staining property” value [5]?
Answer: significantly excellent

Question: What about the Quantum yield [6] of the same compound?
Answer: 0.005

Question: What about the λabs [6] of the same compound?
Answer: 486 nm

Question: And the Molar extinction coefficient ([6]; in M-1 cm-1 (unit assumed))?
Answer: 79,000

Question: With `Cc1cc(C)n2c1C=C1C=CC(CCC(=O)NN)=[N+]1[B-]2(F)F.Cl` [BDP FL hydrazide] as the compound, how does the “Fluorescent staining signal in goblet cell mucus, sliced section” value [7] read?
Answer: weak

Question: What about the “3D imaging signal of cleared tissue” value [5] of the same compound?
Answer: weak

Question: And the “Staining property” value [5]?
Answer: insufficient

Question: For `CCc1nc2cc(C(=O)O)c(-c3c4ccc(=O)cc-4oc4cc(O)ccc34)cc2[nH]1` [Compound 16], which Quantum yield [8] is on record?
Answer: 0.85

Question: And the λabs [8]?
Answer: 489 nm

Question: And the Molar extinction coefficient ([8]; in M-1 cm-1 (unit assumed))?
Answer: 63,000

Question: With Alexa Fluor 488 hydrazide as the compound, how does the “Fluorescent staining signal in goblet cell mucus, sliced section” value [7] read?
Answer: clear positive image; also recorded: clear staining

Question: And the “Fluorescent staining signal without oxidation treatment with HIO4, sliced section” value ([7]; no HIO4 oxidation)?
Answer: not obtained

Question: And the “3D imaging signal of cleared tissue” value [5]?
Answer: weak

Question: And the “Staining property” value [5]?
Answer: insufficient
